Test results published in patent US9073985B2, “Methods and products for treating proliferative diseases” (The Regents of the University of Colorado, a body corporate, priority 2008, dated 2015).

System: melanoma cells
Assay: In vitro treatment of tumor cells in culture, flow cytometry (cell cycle analysis, cell death)
Type: cell-based
Details: melanoma cells treated in vitro
Procedure: Tumor cells (B16.F1, NIT-1, or MCF7) were thawed from liquid nitrogen. The tumor cells were transferred into a 15 milliliter (ml) conical tube using a sterile bulb pipette. Using a balance, the tubes were balanced with cells and spun in the centrifuge. The liquid was removed using the vacuum, leaving the pellet of cells. The cells were mixed using two mls of the RPMI. In a 24 well plate, 1 ml of RPMI was placed in each well. One ml of cells was placed into the first well and the second ml was missed into the second well, then one ml was transferred from the second well into the third. The process was repeated until one ml will remain for the last well (serial dilutions). After two to three days the cells were confluent enough to transfer from a well into a flask. After around 24 hours the treatments were added to the appropriate flasks (control, chloroquine, Avastin, both). After 48 hrs. the cells were stained using lysotracker and propidium idodide. The plate was run in the flow cytometer to check the growth arrest and the amount of lysosomic activity as well as the amount of cell death.

“avastin: humanized monoclonal antibody against VEGF-A, trade name Avastin, Genentech/Roche” was tested, and the “growth arrest by cell cycle analysis” value was “growth arresting the melanoma cells in G0-G1 phase”.
